Measured values taken from US20240041042A1, “1-(PYRIDYL)-5-AZINYLPYRAZOLE DERIVATIVES, AND THEIR USE FOR CONTROL OF UNDESIRED PLANT GROWTH” (Bayer Aktiengesellschaft, priority 2020, published 2024).
Where two headings read alike, the source gives them in different places.

Legend:
Assay type in all cases: in vivo
[1] = test system: Alopecurus myosuroides (ALOMY); assay: Pre-emergence herbicidal action against ALOMY; conditions: scored visually after about 3 weeks, 100% = plants have died
Outline: (§1)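 Pre-emergence soil-surface spray, WP/EC formulation, 0.5% additive, 600 l/ha water, rates of 320 g/ha or lower. Greenhouse, ~3 wk. Visual score, % of untreated control (100% = plants dead, 0% = like control).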

[2] = test system: Amaranthus retroflexus (AMARE); assay: Pre-emergence herbicidal action against AMARE; conditions: visual scoring after about 3 weeks vs untreated controls
Outline: as §1

[3] = test system: Echinochloa crus-galli (ECHCG); assay: Pre-emergence herbicidal action against ECHCG
Outline: as §1

[4] = test system: Lolium rigidum (LOLRI); assay: Pre-emergence herbicidal action against LOLRI; conditions: dosage 320 g/ha
Outline: as §1

[5] = test system: Matricaria inodora (MATIN); assay: Pre-emergence herbicidal action against MATIN
Outline: as §1

[6] = test system: Polygonum convolvulus (POLCO); assay: Pre-emergence herbicidal action against POLCO; conditions: dosage 320 g/ha
Outline: as §1

[7] = test system: Setaria viridis (SETVI); assay: Pre-emergence herbicidal action against SETVI
Outline: as §1

[8] = test system: Zea mays (ZEAMX); conditions: pre-emergence, crop plant compatibility, in comparison to untreated controls
Description: Seeds of monocotyledonous and dicotyledonous weed plants and crop plants are placed in plastic or organic planting pots and covered with soil. The compounds of the invention, formulated in the form of wettable powders (WP) or as emulsion concentrates (EC), are then applied to the surface of the covering soil as aqueous suspension or emulsion with addition of 0.5% additive at a water application rate equivalent to 600 l/ha. After the treatment, the pots are placed in a greenhouse and kept under good growth conditions for the trial plants. After about 3 weeks, the effect of the preparations is scored visually in comparison with untreated controls as percentages. For example, 100% activity=the plants have died, 0% activity=like control plants.
The observed effects on selected crop plants are reported here in comparison to the untreated controls (values in %). The appendices “a” “b” and “c” give differentiation by dosage used with otherwise the same crop plants tested.

[9] = test system: Abutilon theophrasti (ABUTH); assay: Post-emergence herbicidal action against ABUTH; conditions: visual rating about 3 weeks after treatment vs untreated controls (100% = plants have died, 0% = like control plants)
Outline: (§2)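 Greenhouse plants sprayed at the one-leaf stage, 2–3 weeks after sowing, with WP or EC formulations plus 0.5% additive at 600 l/ha water. Activity rated visually after about 3 weeks versus untreated controls (100% = dead, 0% = like control), at 320 g/ha or lower.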

[10] = test system: Amaranthus retroflexus (AMARE); assay: Post-emergence herbicidal action against AMARE
Outline: as §2

[11] = test system: Echinochloa crus-galli (ECHCG); assay: Post-emergence herbicidal action against ECHCG
Outline: as §2

[12] = test system: Matricaria inodora (MATIN); assay: Post-emergence herbicidal action against MATIN
Outline: as §2

[13] = test system: Pharbitis purpurea (PHBPU); assay: Post-emergence herbicidal action against PHBPU; conditions: dosage 320 g/ha
Outline: as §2

[14] = test system: Polygonum convolvulus (POLCO); assay: Post-emergence herbicidal action against POLCO; conditions: dosage 320 g/ha
Outline: as §2

[15] = test system: Setaria viridis (SETVI); assay: Post-emergence herbicidal action against SETVI
Outline: as §2

[16] = test system: Verconica persica (VERPE); assay: Post-emergence herbicidal action against VERPE; conditions: 320 g/ha, VERPE
Outline: as §2

[17] = test system: Oryza sativa (ORYSA); conditions: crop plant compatibility, 80 g/ha, effect in comparison to untreated controls
Outline: (§3)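 Effects were read visually as % versus untreated controls (0% = no effect, 100% = death) about 3 weeks post-treatment. Application was a post-emergence spray at the one-leaf stage of WP/EC formulations with 0.5% additive at 600 l/ha. Different dosages are denoted a, b and c.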

[18] = test system: Zea mays (ZEAMX); conditions: crop plant compatibility, effect vs untreated controls
Outline: as §3

[19] = test system: Alopecurus myosuroides (ALOMY); assay: Post-emergence herbicidal action against ALOMY; conditions: 320 g/ha, visual rating about 3 weeks after treatment vs untreated controls (100% = plants have died, 0% = like control plants)
Outline: as §2

[20] = test system: Avena fatua (AVEFA); assay: Post-emergence herbicidal action against AVEFA; conditions: 320 g/ha, visual rating about 3 weeks after treatment
Outline: as §2

[21] = test system: Lolium rigidum (LOLRI); assay: Post-emergence herbicidal action against LOLRI; conditions: dosage 320 g/ha
Outline: as §2

[22] = test system: Viola tricolor (VIOTR); assay: Post-emergence herbicidal action against VIOTR
Outline: as §2

[23] = test system: Triticum aestivum (TRZAS); conditions: crop plant compatibility, 80 g/ha, effect vs untreated controls
Outline: as §3

[24] = test system: Avena fatua (AVEFA); assay: Pre-emergence herbicidal action against AVEFA; conditions: 320 g/ha, visual scoring after about 3 weeks vs untreated controls
Outline: as §1

[25] = test system: Pharbitis purpurea (PHBPU); assay: Pre-emergence herbicidal action against PHBPU; conditions: dosage 320 g/ha
Outline: as §1

[26] = test system: Verconica persica (VERPE); assay: Pre-emergence herbicidal action against VERPE; conditions: dosage 320 g/ha
Outline: as §1

[27] = test system: Viola tricolor (VIOTR); assay: Pre-emergence herbicidal action against VIOTR; conditions: 320 g/ha, Viola tricolor
Outline: as §1

[28] = 80 g/ha, visual rating about 3 weeks after treatment vs untreated controls (100% = plants have died, 0% = like control plants)
[29] = 320 g/ha, visual rating about 3 weeks after treatment

SMILES	Pre-emergence action against ALOMY ([1]; 320 g/ha) [%]	Pre-emergence action against AMARE in % ([2]; 320 g/ha) [%]	Pre-emergence action against ECHCG in % ([3]; dosage 320 g/ha) [%]	Pre-emergence action against LOLRI in % [4] [%]	Pre-emergence action against MATIN in % ([5]; dosage 320 g/ha) [%]	Pre-emergence action against POLCO in % [6] [%]	Pre-emergence action against SETVI in % ([7]; dosage 320 g/ha) [%]	Pre-emergence action against ZEAMX in % ([8]; 80 g/ha) [%]	Post-emergence action against ABUTH in % ([9]; 320 g/ha) [%]	Post-emergence action against AMARE in % [10, 28] [%]	Post-emergence action against AMARE in % [10, 29] [%]	Post-emergence action against ECHCG in % ([11]; dosage 320 g/ha) [%]	Post-emergence action against MATIN in % ([12]; dosage 320 g/ha) [%]	Post-emergence action against PHBPU in % [13] [%]	Post-emergence action against POLCO in % [14] [%]	Post-emergence action against SETVI in % ([15]; dosage 320 g/ha) [%]	Post-emergence action against VERPE in % [16] [%]	Post-emergence action against ORYSA in % [17] [%]	Post-emergence action against ZEAMX in % ([18]; 80 g/ha) [%]	Pre-emergence action against AMARE in % ([2]; 80 g/ha) [%]	other results
O=C(O)COc1nn(-c2ccccn2)c(-c2ccc(F)nc2)c1F [Example I-373]	90	90	90	80	90	90	80	0	80	80	80	90	90	80	80	90	90	0	0		Pre-emergence action against ZEAMX in % ([8]; 320 g/ha): 0%
CCOC(=O)COc1nn(-c2ncccc2F)c(-c2ccc(F)nc2)c1F [Example I-354]	80	90	100		90	80	90	0		80	80	100	80	90	80	80	90		0	80	Post-emergence action against ALOMY in % [19]: 90%; Post-emergence action against AVEFA in % [20]: 80%; Post-emergence action against LOLRI in % [21]: 90%; Post-emergence action against MATIN in % ([12]; dosage 80 g/ha): 80%; Post-emergence action against SETVI in % ([15]; dosage 80 g/ha): 80%; Post-emergence action against VIOTR in % ([22]; 80 g/ha): 80%; Post-emergence action against VIOTR in % ([22]; 320 g/ha): 80%; Post-emergence action against TRZAS in % [23]: 0%
O=C(O)COc1nn(-c2nc(F)ccc2F)c(-c2ccc(F)nc2)c1Br [Example I-334]	90	100	90	90	100	90	90	20	80	80	80	90	80	80	80		80	20	10	90	Pre-emergence action against ALOMY ([1]; 80 g/ha): 80%; Pre-emergence action against AVEFA in % [24]: 90%; Pre-emergence action against ECHCG in % ([3]; dosage 80 g/ha): 80%; Pre-emergence action against MATIN in % ([5]; dosage 80 g/ha): 80%; Pre-emergence action against PHBPU in % [25]: 90%; Pre-emergence action against SETVI in % ([7]; dosage 80 g/ha): 90%; Pre-emergence action against VERPE in % [26]: 80%; Pre-emergence action against VIOTR in % [27]: 90%; Post-emergence action against ABUTH in % ([9]; 80 g/ha): 80%; Post-emergence action against ALOMY in % [19]: 90%; Post-emergence action against AVEFA in % [20]: 80%; Post-emergence action against ECHCG in % ([11]; dosage 80 g/ha): 80%; Post-emergence action against LOLRI in % [21]: 90%; Post-emergence action against VIOTR in % ([22]; 80 g/ha): 80%; Post-emergence action against VIOTR in % ([22]; 320 g/ha): 80%; Post-emergence action against ZEAMX in % ([18]; 320 g/ha): 20%
